From patent US20230312587A1, “PTERIDINONE COMPOUNDS AND USES THEREOF” (Vertex Pharmaceutical Incorporated, priority 2018, published 2023)
Read-outs that look alike come from different tables or passages of the source.

Columns and labels:
Plk1 = Plk1 (Homo sapiens (Human), UniProt P53350); assay: PLK1 inhibition assay (radioactive-phosphate incorporation); assay type: biochemical; conditions: Ki(app), read-out: PLK1 - 33P.ENZ - CB 10 Ki
Protocol: Compounds were screened for their ability to inhibit Plk1 using a radioactive-phosphate incorporation assay. Assays were carried out in a mixture of 25 mM HEPES (pH 7.5), 10 mM MgCl2, 25 mM NaCl, and 2 mM DTT. Final substrate concentrations were 20 μM [γ-33P]ATP (35mCi 33P ATP/mmol ATP, Perkin Elmer/Sigma Chemicals) and 9 uM Sam68 protein. Assays were carried out at room temperature in the presence of 15 nM Plk1. An assay stock buffer solution was prepared containing all of the reagents listed above, with the exception of ATP and the test compound of interest. 0.75 μL of DMSO stock containing serial dilutions of the test compound (typically starting from a final concentration of 10 μM with 2-fold serial dilutions—final DMSO concentration 1.5%) was placed in a 384 well plate followed by addition of 25 μL [γ-33P]ATP (final concentration 20 μM). The reaction was initiated by addition of 25 μL of the assay stock buffer solution.
The reaction was stopped after 45 minutes by the addition of 25 μL 30% trichloroacetic acid (TCA) containing 10 mM cold ATP. The entire quenched reaction was transferred to a 384-well glass fiber filter plate (Millipore, Cat no. MZFBNOW50). The plate was washed with 3×5% TCA. After drying, 40 μL of Ultima Gold liquid scintillation cocktail (Perkin Elmer) was added to the well prior to scintillation counting in a PerkinElmer TopCount.
After removing mean background values for all of the data points, Ki(app) data were calculated from non-linear regression analysis of the initial rate data using the Prism software package (GraphPad Prism, GraphPad Software, San Diego California, USA).

[1] = system: β-catenin-TCF-mediated reporter transcription activity in Colo 205 cells; assay: Colo 205 reporter assay (TCF/LEF luciferase); assay type: cell-based; conditions: Colo 205 TCF/LEF luciferase reporter, five hours after addition of compound, read-out: TCF reporter Colo205 IC50
In short: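 Luciferase signal from a TCF/LEF-driven reporter, stably integrated in Colo 205 colon cancer cells, was measured 5 h after compound addition.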

Sequence of Plk1 (P53350 whole entry, species assumed): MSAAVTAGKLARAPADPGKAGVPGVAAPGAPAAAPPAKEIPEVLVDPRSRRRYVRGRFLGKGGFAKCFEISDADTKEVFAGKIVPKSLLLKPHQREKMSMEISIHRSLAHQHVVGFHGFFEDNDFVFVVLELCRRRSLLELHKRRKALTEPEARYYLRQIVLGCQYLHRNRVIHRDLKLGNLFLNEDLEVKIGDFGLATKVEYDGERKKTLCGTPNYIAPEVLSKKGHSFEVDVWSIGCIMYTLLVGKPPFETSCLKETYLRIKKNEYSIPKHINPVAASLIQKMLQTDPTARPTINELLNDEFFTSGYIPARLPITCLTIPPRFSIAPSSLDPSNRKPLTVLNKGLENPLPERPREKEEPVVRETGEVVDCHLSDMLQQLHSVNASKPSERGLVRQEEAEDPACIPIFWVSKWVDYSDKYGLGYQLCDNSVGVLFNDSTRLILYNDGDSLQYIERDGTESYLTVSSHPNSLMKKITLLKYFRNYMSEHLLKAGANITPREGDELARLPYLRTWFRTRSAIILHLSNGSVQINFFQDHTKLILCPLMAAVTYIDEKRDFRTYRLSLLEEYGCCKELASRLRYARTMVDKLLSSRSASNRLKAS

Ki (Plk1) | IC50 ([1]; Homo sapiens, COLO 205, 5 h) | IC50 [1] | SMILES
> 4000 nM | < 300 nM |  | Cc1nc(NCc2cnn(CCC3CCCCC3)c2)nc2c1NC(=O)[C@H](C)N2C [Compound 113, (7S)-2-(((1-(2-cyclohexylethyl)-1H-pyrazol-4-yl)methyl)amino)-4,7,8-trimethyl-7,8-dihydropteridin-6(5H)-one]
> 4000 nM | < 300 nM |  | Cc1nc(NCc2cnn(C3Cc4ccccc4C3)c2)nc2c1NC(=O)[C@H](C)N2C [Compound 116, (7S)-2-(((1-(2,3-dihydro-1H-inden-2-yl)-1H-pyrazol-4-yl)methyl)amino)-4,7,8-trimethyl-7,8-dihydropteridin-6(5H)-one]
> 4000 nM | < 300 nM |  | Cc1noc(C)c1Cn1cc(CNc2nc(C)c3c(n2)N(C)[C@@H](C)C(=O)N3)cn1 [Compound 138, (7S)-2-(((1-((3,5-dimethylisoxazol-4-yl)methyl)-1H-pyrazol-4-yl)methyl)amino)-4,7,8-trimethyl-7,8-dihydropteridin-6(5H)-one]
> 4000 nM | < 300 nM |  | Cc1nc(NCc2cnn(Cc3ccc(C(F)(F)F)o3)c2)nc2c1NC(=O)[C@H](C)N2C [Compound 192, (7S)-4,7,8-trimethyl-2-(((1-((5-(trifluoromethyl)furan-2-yl)methyl)-1H-pyrazol-4-yl)methyl)amino)-7,8-dihydropteridin-6(5H)-one]
> 4000 nM | < 300 nM |  | Cc1nc(NCc2cnn(Cc3ccc(F)cc3)c2)nc2c1NC(=O)C1(CC1)N2C [Compound 221, 2′-(((1-(4-fluorobenzyl)-1H-pyrazol-4-yl)methyl)amino)-4′,8′-dimethyl-5′,8′-dihydro-6′H-spiro[cyclopropane-1,7′-pteridin]-6′-one]
> 4000 nM | < 300 nM |  | CN1C(=O)C(C)(C)N(C)c2nc(NCc3cnn(Cc4ccc(F)cc4)c3)ncc21 [Compound 224, 2-(((1-(4-fluorobenzyl)-1H-pyrazol-4-yl)methyl)amino)-5,7,7,8-tetramethyl-7,8-dihydropteridin-6(5H)-one]
> 4000 nM |  | 300 to 1000 nM | CCN1C(=O)[C@@](C)(CC)N(CC)c2nc(NCc3cnn(Cc4ccc(F)cc4)c3)ncc21 [Compound 234, (7R)-5,7,8-triethyl-2-(((1-(4-fluorobenzyl)-1H-pyrazol-4-yl)methyl)amino)-7-methyl-7,8-dihydropteridin-6(5H)-one]
> 4000 nM | < 300 nM |  | Cc1nc(N[C@@H]2CC[C@@H](Oc3cc(F)c(F)c(F)c3)C2)nc2c1NC(=O)[C@H](C)N2C [Compound 267, (S)-4,7,8-trimethyl-2-(((1R,3R)-3-(3,4,5-trifluorophenoxy)cyclopentyl)amino)-7,8-dihydropteridin-6(5H)-one]
> 4000 nM |  | 300 to 1000 nM | Cc1nc(N[C@H]2CC[C@H](Oc3cc(F)c(F)c(F)c3)C2)nc2c1NC(=O)[C@H](C)N2C [Compound 268, (S)-4,7,8-trimethyl-2-(((1S,3S)-3-(3,4,5-trifluorophenoxy)cyclopentyl)amino)-7,8-dihydropteridin-6(5H)-one]
> 4000 nM | < 300 nM |  | Cc1nc(N[C@H]2C[C@@H](Cn3nccc3C(F)(F)F)C2)nc2c1NC(=O)[C@H](C)N2C [Compound 275, (7S)-4,7,8-trimethyl-2-((cis-3-((5-(trifluoromethyl)-1H-pyrazol-1-yl)methyl)cyclobutyl)amino)-7,8-dihydropteridin-6(5H)-one]

The next lines start with the molecule.

SMILES | Ki (Plk1) | IC50 ([1]; Homo sapiens, COLO 205, 5 h) | IC50 [1]
CC[C@H]1C(=O)N(CC)c2cnc(NCc3cnn(Cc4ccc(F)cc4)c3)nc2N1C [Compound 19, (7S)-5,7-Diethyl-2-(((1-(4-fluorobenzyl)-1H-pyrazol-4-yl)methyl)amino)-8-methyl-7,8-dihydropteridin-6(5H)-one] | > 4000 nM | 300 to 1000 nM | 
CCN1c2nc(NCc3cnn(Cc4ccc(F)cc4)c3)ncc2N(C)C(=O)[C@@H]1C [Compound 22, (7S)-8-ethyl-2-(((1-(4-fluorobenzyl)-1H-pyrazol-4-yl)methyl)amino)-5,7-dimethyl-7,8-dihydropteridin-6(5H)-one] | > 4000 nM | < 300 nM | 
CCC[C@H]1C(=O)N(C)c2cnc(NCc3cnn(Cc4cc(F)c(F)c(F)c4)c3)nc2N1C [Compound 23, (7S)-5,8-dimethyl-7-propyl-2-(((1-(3,4,5-trifluorobenzyl)-1H-pyrazol-4-yl)methyl)amino)-7,8-dihydropteridin-6(5H)-one] | > 4000 nM | < 300 nM | 
CCC[C@H]1C(=O)N(C)c2cnc(NCc3cnn(Cc4ccc(F)cc4)c3)nc2N1C [Compound 24, (7S)-2-(((1-(4-fluorobenzyl)-1H-pyrazol-4-yl)methyl)amino)-5,8-dimethyl-7-propyl-7,8-dihydropteridin-6(5H)-one] | > 4000 nM | 300 to 1000 nM | 
CCN1C(=O)[C@H](C)N(CC)c2nc(NCc3cnn(Cc4ccc(F)cc4)c3)ncc21 [Compound 30, (7S)-5,8-diethyl-2-(((1-(4-fluorobenzyl)-1H-pyrazol-4-yl)methyl)amino)-7-methyl-7,8-dihydropteridin-6(5H)-one] | > 4000 nM | < 300 nM | 
CC[C@H]1C(=O)N(C)c2cnc(NCc3cnn(Cc4ccc(F)cc4)c3)nc2N1C(C)C [Compound 32, (7S)-7-ethyl-2-(((1-(4-fluorobenzyl)-1H-pyrazol-4-yl)methyl)amino)-8-isopropyl-5-methyl-7,8-dihydropteridin-6(5H)-one] | > 4000 nM | 300 to 1000 nM | 
CCN1C(=O)[C@](C)(CC)N(CC)c2nc(NCc3cnn(Cc4ccc(F)cc4)c3)ncc21 [Compound 34, (7S)-5,7,8-triethyl-2-(((1-(4-fluorobenzyl)-1H-pyrazol-4-yl)methyl)amino)-7-methyl-7,8-dihydropteridin-6(5H)-one] | > 4000 nM | 300 to 1000 nM | 
COc1c(F)cc(Cn2cc(CNc3ncc4c(n3)N(C)[C@@H](C)C(=O)N4)cn2)cc1F [Compound 44, (7S)-2-(((1-(3,5-difluoro-4-methoxybenzyl)-1H-pyrazol-4-yl)methyl)amino)-7,8-dimethyl-7,8-dihydropteridin-6(5H)-one] | > 4000 nM | < 300 nM | 
Cc1nc(NCc2cnn(Cc3cccc(C(F)(F)F)c3)c2)nc2c1NC(=O)[C@H](C)N2C [Compound 47, (7S)-4,7,8-trimethyl-2-(((1-(3-(trifluoromethyl)benzyl)-1H-pyrazol-4-yl)methyl)amino)-7,8-dihydropteridin-6(5H)-one] | > 4000 nM | < 300 nM | 
CCN1C(=O)[C@H](CCO)N(CC)c2nc(NCc3cnn(Cc4cc(F)c(OC)c(F)c4)c3)ncc21 [Compound 48, (7S)-2-(((1-(3,5-difluoro-4-methoxybenzyl)-1H-pyrazol-4-yl)methyl)amino)-5,8-diethyl-7-(2-hydroxyethyl)-7,8-dihydropteridin-6(5H)-one] | > 4000 nM | < 300 nM | 
C[C@H]1C(=O)Nc2cnc(NCc3cnn(Cc4cc(F)c(O)c(F)c4)c3)nc2N1C [Compound 50, (7S)-2-(((1-(3,5-difluoro-4-hydroxybenzyl)-1H-pyrazol-4-yl)methyl)amino)-7,8-dimethyl-7,8-dihydropteridin-6(5H)-one] | > 4000 nM | ≥ 5000 nM | 
CCN1C(=O)[C@H](C)N(C(C)C)c2nc(NCc3cnn(Cc4cc(F)c(F)c(F)c4)c3)ncc21 [Compound 51, (7S)-5-ethyl-8-isopropyl-7-methyl-2-(((1-(3,4,5-trifluorobenzyl)-1H-pyrazol-4-yl)methyl)amino)-7,8-dihydropteridin-6(5H)-one] | > 4000 nM | < 300 nM | 
Cc1nc(NCc2ccc(Oc3ccc(F)cc3)nc2)nc2c1NC(=O)[C@H](C)N2C [Compound 54, (7S)-2-(((6-(4-fluorophenoxy)pyridin-3-yl)methyl)amino)-4,7,8-trimethyl-7,8-dihydropteridin-6(5H)-one] | > 4000 nM | < 300 nM | 
Cc1nc(NCc2cnn([C@H]3C[C@H](c4ccc(F)cc4)C3)c2)nc2c1NC(=O)[C@H](C)N2C [Compound 112, (7S)-2-(((trans-1-(3-(4-fluorophenyl)cyclobutyl)-1H-pyrazol-4-yl)methyl)amino)-4,7,8-trimethyl-7,8-dihydropteridin-6(5H)-one] | > 4000 nM | < 300 nM | 
